Test results as given in US20130072459A1, “PHARMACEUTICAL COMPOSITION FOR THE PREVENTION OR THE TREATMENT OF NON-ALCOHOLIC FATTY LIVER DISEASE AND THE METHOD FOR PREVENTION OR TREATMENT OF NON-ALCOHOLIC FATTY LIVER DISEASE USING THE SAME” (priority 2010, published 2013).

Experiments:
HepG2 cells = test: Free fatty acid-induced intracellular fat accumulation, Nile Red staining; type: cell-based, human; settings: 0.5 mM free fatty acid, 24 hours
Procedure: By a combined treatment of free fatty acid and a drug, inhibitory effects of individual drugs on intracellular fat accumulation were quantified using a triglyceride staining method. The human hepatoma cell line, HepG2 cells were cultured in a minimum essential medium (MEM) containing 10(v/v) % fetal bovine serum for 48 hours. […] For the negative control group, a MEM containing 1(v/v) % bovine serum albumin was treated with 0.1(v/v) % dimethyl sulfoxide with no addition of free fatty acid. After the culture was complete, the medium was removed and the cells were washed with a phosphate buffer. […] After the staining was complete, the supernatant was discarded and replaced with a phosphate buffer, followed by measurement of fluorescence intensities under conditions of a 488 nm excitation wavelength and a 550 nm emission wavelength. Then, in order to correct a deviation according to the cell count, a phosphate buffer containing 10 μM resazurin (Sigma) dissolved therein was added to the same well. Thereafter, before and after the reaction at 37° C. for 1 hour under light-shielded conditions, fluorescence intensities were measured using a fluorometer under conditions of a 535 nm excitation wavelength and a 580 nm emission wavelength, whereby an increase in fluorescence intensity due to resorufin reduced and formed by the intracellular mitochondrial activity was measured. Using the value of a fluorescence intensity of Nile Red corrected in terms of an increase in fluorescence intensity due to the reduction of resazurin, the experimental results were expressed as a percentage for the fat accumulation increased by a treatment with free fatty acid, as compared to the negative control group.

[1] = tested on: high fat diet-induced simple steatosis; test: Non-alcoholic fatty liver-preventing effects on high fat diet-induced simple steatosis in mice (oral, 28 days); type: in vivo, C57BL/6 mice; settings: for Triglyceride increase inhibition (%) relative to high fat diet-fed group / Triglyceride increment (%) relative to standard diet-fed group: 28 days, high fat diet
Procedure: 7-week old male C57BL/6 mice were stabilized and then divided into 9 groups (n=9) according to the body weight and blood glucose level. A standard diet-fed group and a high fat diet-fed group were orally administered a vehicle solution (0.5% MC (methylene cellulose)) of each diet once a day at a dose of 10 ml/kg, and the remaining groups were orally given once a day for 28 days a high fat diet in conjunction with tartrate of Compound 1 at doses of 30, 100 and 300 mg/kg, sitagliptin phosphate at doses of 100 and 300 mg/kg, and vildagliptin at doses of 100 mg/kg and 300 mg/kg, respectively, according to the designated groups. 24 hours after the final oral administration, animals were dissected and the excised liver was homogenized in a 5(v/v) % Triton-X solution to which a triglyceride working reagent was then added, followed by measurement of an absorbance at 540 nm to determine the content of triglyceride (Table 2). In addition, a portion of the excised liver was fixed in a 10(v/v) % formalin solution and then a tissue sample was prepared, followed by hematoxylin & eosin(HE) staining and photographing (FIG. 8).

[2] = tested on: activated hepatic stellate cells; test: Expression of activity indicator proteins (TGFβ1, α-SMA) in activated hepatic stellate cells, Western blot; type: cell-based, rat (Wistar); settings: for 1 ng/mL TGFβ1-induced protein expression inhibition rate, TGFβ1 / 1 ng/mL TGFβ1-induced protein expression inhibition rate, α-SMA: 100 μM compound, 7 days, N = 3, corrected by β-actin; for protein expression levels of TGFβ1 and α-SMA, result in words: hTGF-β1-activated rat hepatic stellate cells
Procedure: An inhibitory action of the compounds of the present invention on the activation of hepatic stellate cells was tested according to the following cell culture method. Male rats (Wistar rats), weighing 500 to 700 g, were anesthetized, followed by an abdominal incision, and cannulae were connected to hepatic portal veins, followed by sequential perfusion with a Hank's Balanced Salt Solution (HBSS) containing heparin and an HBSS containing type 1 collagenase. After the perfusion was complete, the liver was excised, ground with surgical scissors, and added to an HBSS containing type 1 collagenase, followed by shaking culture at 37° C. for 15 minutes. The completely ground liquid-state liver tissue was passed through gauze and centrifuged at 500 g for 10 minutes. The resulting mingled cell precipitate was washed with a phosphate buffer, followed by centrifugation at 100 g for 5 minutes, and the supernatant was collected. The supernatant was further centrifuged at 500 g for 10 minutes to obtain a precipitate to which a 9:1 (v/v) mixture of a Ficoll liquid (GE Healthcare) and a Percoll liquid (GE Healthcare) was added, followed by mixing. A phosphate buffer was gently placed on the mixed layer, followed by centrifugation at 1,400 g for 15 minutes. Then, the cell layer formed between the upper layer and the lower layer was recovered and washed once with a Dulbecco's Modified Eagle Medium (DMEM) containing 10(v/v) % fetal bovine serum. The resulting cells were added at a cell density of 3.1×10^5 cells/cm^2, the medium was exchanged with a fresh medium after 24 hours, and cultured for 7 days with exchange of the medium at intervals of 2 to 3 days. Then, the drugs were treated at specified concentrations in a medium containing 1 ng/ml of a human transforming growth factor (TGF) β1 and a medium containing no TGF β1. TGF β1 was dissolved in dimethylsulfoxide (DMSO) to a concentration 1.000-fold higher than the desired treatment concentration of the drug, 1.000-fold diluted in a medium to be a 1-fold (1×) volume, and then treated on cells. After 7 days of the drug treatment, the medium was harvested and washed with a phosphate buffer. A buffer containing a surfactant was added thereto and the cells were lysed. Then, proteins were quantified, electrophoresed on a 4-12% Bis-Tris gel (Invitrogen), and transferred to a nitrocellulose membrane. The transferred proteins were reacted with primary antibodies specific for α-smooth muscle actin (α-SMA) or TGFβ1, and then reacted with horse radish peroxidase-conjugated specific secondary antibodies. The expression level of the target protein was confirmed using a chemiluminescent liquid and corrected in terms of actin (β-actin) expression level (FIG. 9). The decrement of observed protein expression by 100 μM of individual compounds of the present invention was expressed as a percentage drug-induced decrement, based an increment of protein expression in the TGFβ1-treated positive control group relative to the negative control group to which only DMSO was added (Table 3).

TGF-β1 = TGF-β1 mRNA expression in liver, CCl4-induced acute hepatic damage mouse model; type: in vivo, C57BL/6 mice; settings: for TGF-β1 expression inhibition rate (% CCl4 control group) / TGF-β1 expression (normalized by actin): 3 days; for TGF-β1 expression (normalized by actin): CCl4 0.1 ml/kg i.p.
Procedure: In order to investigate inhibitory effects of compounds of the present invention on expression of TGF-β1 which is known to play a crucial role in a fibrosis process of hepatocytes in a CCl4-induced acute hepatic damage mouse model, the following experiment was carried out. 7-week old male C57BL/6 mice were stabilized and divided into 9 groups (n=7) according to the body weight, followed by intraperitoneal administration of CCl4 (0.1 ml/kg). The normal control group was administered an olive oil. The control group was orally administered a vehicle solution (0.5% MC) once a day at a dose of 10 ml/kg, at intervals of 24 hours for 3 days. The remaining groups were orally administered once a day tartrate of Compound 1 at doses of 30, 100 and 300 mg/kg, sitagliptin phosphate (prepared according to the method described in WO2004/085378 or WO2005/003135) at doses of 100 and 300 mg/kg, and vildagliptin (Trademax, China) at doses of 100 and 300 mg/kg, respectively, according to the designated groups. 1 hour after the final oral administration, animals were dissected and the excised liver was subjected to evaluation of TGF-β1 mRNA expression. The liver tissue stored in liquid nitrogen was homogenized in a TRIZOL solution and then the total RNAs were extracted. The isolated RNAs were diluted to a concentration of 1 μg/μL in 0.1(v/v) % DEPC (diethyl pyrocarbonate), and then the RNA mixture [2 μg/μL each RNA+2 μL of 0.5 μg/μL oligo d(T)15+up to 15 μL of 0.1% DEPC water] was incubated using a PCR apparatus at 72° C. for 5 minutes, followed by quenching on ice. The mixture [1 μL of PCR nucleotide mix+5 μL of 5×MMLV RT bf.(Promega, M531A)+1 μL of […] M-MLV reverse] was prepared, and then subjected to elongation at 42° C. for 60 minutes, denaturation at 95° C. for 5 minutes and quenching at 8° C. to synthesize cDNAs which were stored at −20° C. until subsequent use. In order to carry out RT-PCR, the mixture [1 μL of 20 pmol each Primer+9.5 μL of Nuclease-free water] was prepared and then 2 μL of each cDNA was placed in sterile PCR tubes to which 12.5 μL of remix Taq™ (RR003A, TaKaRa) was then added, followed by mixing. PCR was carried out under the following conditions (Table 4), using Thermal Cycler (PTC-200, MJ Research). PCT products were electrophoresed and analyzed using an Image Analyzer (Vilber Lourmat). Using β-actin expression, the expression of a target gene TGF-β1 was subjected to normalization (FIG. 11).

glucagon-like peptide-1 [GLP-1]
inhibitory effects on free fatty acid-induced fat accumulation (HepG2 cells; 100 nM): 28.0±4.9%

N#C[C@@H]1CCCN1C(=O)CNC12CC3CC(CC(O)(C3)C1)C2 [vildagliptin]
Triglyceride increase inhibition (%) relative to high fat diet-fed group ([1]; 100 mg/kg oral once a day): 24%
Triglyceride increment (%) relative to standard diet-fed group ([1]; 100 mg/kg oral once a day): 38%
Triglyceride increase inhibition (%) relative to high fat diet-fed group ([1]; 300 mg/kg oral once a day): 79%
Triglyceride increment (%) relative to standard diet-fed group ([1]; 300 mg/kg oral once a day): 11%
lipid droplets in liver tissue sample (histological evaluation), result in words ([1]; HE staining, FIG. 8): reduction of lipid droplets
maximum decrement of the hepatic triglyceride content relative to the high fat diet-fed group ([1]; maximum over the doses tested): 79%
1 ng/mL TGFβ1-induced protein expression inhibition rate, TGFβ1 [2]: 14 ± 32.8%
1 ng/mL TGFβ1-induced protein expression inhibition rate, α-SMA [2]: −56 ± 8.4%
protein expression levels of TGFβ1 and α-SMA, result in words [2]: lowered
TGF-β1 expression inhibition rate (% CCl4 control group) (TGF-β1; 100 mg/kg oral once a day): 92%
TGF-β1 expression (normalized by actin) (TGF-β1; 100 mg/kg oral once a day): 1.02 ± 0.09
TGF-β1 expression inhibition rate (% CCl4 control group) (TGF-β1; 300 mg/kg oral once a day): 115%
TGF-β1 expression (normalized by actin) (TGF-β1; 300 mg/kg oral once a day): 0.96 ± 0.12
maximum decrement in TGF-β1 mRNA expression of the liver relative to the CCl4 control group (TGF-β1; maximum over the doses tested): 115%
expression of TGF-β1 mRNA of the liver, result in words (TGF-β1; vs CCl4 group): normalization

CC#CCn1c(N2CCC[C@@H](N)C2)nc2c1c(=O)n(Cc1nc(C)c3ccccc3n1)c(=O)n2C [linagliptin]
1 ng/mL TGFβ1-induced protein expression inhibition rate, TGFβ1 [2]: 64 ± 17.2%
1 ng/mL TGFβ1-induced protein expression inhibition rate, α-SMA [2]: 159 ± 17.5%
protein expression levels of TGFβ1 and α-SMA, result in words [2]: lowered

CN(C)C(=N)N=C(N)N [metformin]
inhibition at 1000 µM (HepG2 cells; Homo sapiens, HepG2, 1 mM, read-out: inhibitory effects on free fatty acid-induced fat accumulation): 23.6 ± 5%
